Data reported in patent publication US20150307520A1, “NOVEL HETEROARYL AND HETEROCYCLE COMPOUNDS, COMPOSITIONS AND METHODS THEREOF” (HUTCHISON MEDIPHARMA LIMITED, priority 2012, published 2015).

What was measured:
PI3Kγ = PI3Kγ (Mus musculus, UniProt Q9JHG7); assay: Acumen Assay - Raw264.7 p-AKT Assay (C5a stimulated); format: cell-based; settings: Raw264.7 macrophage cells, compound 30 min, stimulated with 10 nM C5a for 5 min, p-AKT (Ser473) readout; read-out: PI3Kγ cell-C5a Raw264.7 IC50
Description: Acumen Assay—Raw264.7 p-AKT Assay
Acumen® eX3 (A Multilaser Microplate Cytometer For Enhanced High Content Screening): TTP LabTech
3×10^4 Raw264.7 macrophage cells were seeded into 96-well plates with DMEM+10% heat-inactivated FBS at […], 90 ul/well, overnight. After starvation for 3 hr at 37° C. under 5% CO2, Raw264.7 cells were treated with 10 ul/well various concentrations of compound or 0.5% DMSO for 30 min, and then stimulated with 10 ul/well 10 nM C5a for 5 min.
1.) Cells were fixed 110 μL of 4% pre-warmed Paraformaldehyde (2% final), incubate for 45 min at room temperature. 2.) Remove paraformaldehyde solution. Add 100 μL of ice-cold 0.1% Triton X-100 in PBS and leave at 4° C. for 30 min. 3.) Wash once in 100 μL PBS. 4.) Incubate with 100 μL blocking buffer (1% BSA, in PBS) for 2 hours at room temperature. 5.) Wash once for 5 min with 100 ul PBS. 6.) Incubate with 40 μL 1:200 dilution of phospho AKT (Ser473) rabbit antibody in antibody dilution buffer (0.1% BSA, in PBS) overnight at 4° C. 7.) Wash for 3 times for 10 min with 100 ul PBS. 8.) Incubate for 90 min at room temperature with 50 μL of goat anti-rabbit Alex488 antibody at a 1:1,000 dilution in antibody dilution buffer (0.1% BSA, in PBS). Cover plate in foil to keep out of light. 9.) Wash for 3 times for 10 min with 100 μL PBS. 10.) Add 50 μL of 1.5 μM Propidium Iodide solution to each well to determine cell number at a 1:1,000 dilution in PBS (stock: 1.5 mM). 11.) Incubate at room temperature for 30 min. 12.) Seal the plate with a black cover-seal (supplied with plate). 13.) Load the plate into the Acumen Explorer and scan with the appropriate instrument settings.

p110γ = p110γ (Homo sapiens, UniProt P48736); assay: Transcreener KINASE Assay, kinase inhibition of p110γ; format: biochemical; settings: for PI3Kγ IH % @ 1 uM: 1 uM test compound; for IC50: read-out: PI3Kγ IC50
Procedure, shortened: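 Recombinant PI3K isoforms (p85α complexes or p110γ alone) reacted 80 min at room temperature, then ADP detection mix added for 60 min. ADP formation read by far-red competitive fluorescence polarization immunoassay; IC50 by curve fitting.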

p110β/p85α = p110β/p85α (Homo sapiens, UniProt P42338); assay: Transcreener KINASE Assay, kinase inhibition of p110β/p85α; format: biochemical; settings: for PI3Kβ IH % @ 1 uM: 1 uM test compound; for IC50: read-out: PI3Kβ IC50
Procedure, shortened: (§1)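 Recombinant PI3K/p85α heterodimers were incubated with compound (2% DMSO final) for 80 min at room temperature in 50 mM HEPES, 100 mM NaCl, 1 mM EGTA, 0.03% CHAPS, 3 mM MgCl2, 1 mM DTT, with substrate added as a 30 uM PIP2/10 uM ATP mix. ADP was detected by competitive fluorescence polarization immunoassay.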

p110δ/p85α = p110δ/p85α (Homo sapiens, UniProt O00329); assay: Transcreener KINASE Assay, kinase inhibition of p110δ/p85α; format: biochemical; settings: for PI3Kδ IH % @ 1 uM: 1 uM test compound; for IC50: read-out: PI3Kδ IC50
Procedure, shortened: as §1

p110α/p85α = p110α/p85α (Homo sapiens, UniProt P42336); assay: Transcreener KINASE Assay, kinase inhibition of p110α/p85α; format: biochemical; settings: 1 uM test compound
Description: PI3K kinases including p110α/p85α, p110δ/p85α and p110γ are purchased from Invitrogen, and p110β/p85α is from Millipore.
Primary screening data and IC50 values are measured using Transcreener™ KINASE Assay (Bellbrook, Catalog #3003-10K). […] It is a universal, homogenous, high throughput screening (HTS) technology using a far-red, competitive fluorescence polarization immunoassay based on the detection of ADP to monitor the activity of enzymes that catalyze group transfer reactions. Briefly, the Transcreener KINASE Assay is designed as a simple two-part, endpoint assay.
In the first step, the 25 ul kinase reaction is performed by preparing a reaction mixture containing 5 ul test compound (2% DMSO final concentration), 10 ul kinase, buffer (50 mM HEPES, 100 mM NaCl, 1 mM EGTA, 0.03% CHAPS, 3 mM MgCl2, and freshly supplemented 1 mM DTT), and 10 ul 30 uM PIP2/10 uM ATP. The plate is sealed and incubated for 80 min at room temperature. Next, 25 ul ADP detection mix is added per well. The plate is sealed again and incubated for 60 min at room temperature, and then measure fluorescence polarization by Tecan Infinite F500 Reader.
Data is analyzed and IC50s are generated using the add-in software for Microsoft Excel, Xlfit™ (version 2.0). IH %=(ADP amount under 2% DMSO-ADP amount under test compound)/ADP amount under 2% DMSO.

Chain of p110δ/p85α (O00329 whole entry): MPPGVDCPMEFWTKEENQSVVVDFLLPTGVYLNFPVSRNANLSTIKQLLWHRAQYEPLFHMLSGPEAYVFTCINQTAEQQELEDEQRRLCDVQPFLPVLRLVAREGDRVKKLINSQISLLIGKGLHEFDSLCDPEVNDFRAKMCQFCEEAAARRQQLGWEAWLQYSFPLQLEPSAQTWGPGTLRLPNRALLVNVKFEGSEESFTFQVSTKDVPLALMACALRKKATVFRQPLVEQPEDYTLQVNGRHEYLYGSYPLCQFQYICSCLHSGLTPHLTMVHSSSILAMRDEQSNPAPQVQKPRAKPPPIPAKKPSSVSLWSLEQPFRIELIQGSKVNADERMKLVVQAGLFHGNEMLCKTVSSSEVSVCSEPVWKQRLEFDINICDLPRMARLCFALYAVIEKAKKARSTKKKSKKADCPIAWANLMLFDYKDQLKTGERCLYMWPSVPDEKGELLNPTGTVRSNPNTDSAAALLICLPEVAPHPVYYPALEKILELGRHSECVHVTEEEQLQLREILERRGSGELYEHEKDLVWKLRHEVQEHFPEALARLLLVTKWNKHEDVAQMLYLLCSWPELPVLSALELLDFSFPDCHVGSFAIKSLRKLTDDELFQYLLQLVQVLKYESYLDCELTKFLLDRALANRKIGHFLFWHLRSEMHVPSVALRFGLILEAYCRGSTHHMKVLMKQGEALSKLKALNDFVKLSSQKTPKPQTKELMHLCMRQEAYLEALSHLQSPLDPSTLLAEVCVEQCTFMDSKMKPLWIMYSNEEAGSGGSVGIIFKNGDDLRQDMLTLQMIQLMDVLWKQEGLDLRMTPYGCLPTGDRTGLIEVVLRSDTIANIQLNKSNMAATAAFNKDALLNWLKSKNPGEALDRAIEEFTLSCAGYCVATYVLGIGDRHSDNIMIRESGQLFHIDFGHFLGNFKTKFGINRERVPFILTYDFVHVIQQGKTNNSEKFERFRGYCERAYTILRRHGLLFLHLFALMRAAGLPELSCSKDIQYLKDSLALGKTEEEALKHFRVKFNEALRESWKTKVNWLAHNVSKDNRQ
Chain of p110δ/p85α (P27986 whole entry partner): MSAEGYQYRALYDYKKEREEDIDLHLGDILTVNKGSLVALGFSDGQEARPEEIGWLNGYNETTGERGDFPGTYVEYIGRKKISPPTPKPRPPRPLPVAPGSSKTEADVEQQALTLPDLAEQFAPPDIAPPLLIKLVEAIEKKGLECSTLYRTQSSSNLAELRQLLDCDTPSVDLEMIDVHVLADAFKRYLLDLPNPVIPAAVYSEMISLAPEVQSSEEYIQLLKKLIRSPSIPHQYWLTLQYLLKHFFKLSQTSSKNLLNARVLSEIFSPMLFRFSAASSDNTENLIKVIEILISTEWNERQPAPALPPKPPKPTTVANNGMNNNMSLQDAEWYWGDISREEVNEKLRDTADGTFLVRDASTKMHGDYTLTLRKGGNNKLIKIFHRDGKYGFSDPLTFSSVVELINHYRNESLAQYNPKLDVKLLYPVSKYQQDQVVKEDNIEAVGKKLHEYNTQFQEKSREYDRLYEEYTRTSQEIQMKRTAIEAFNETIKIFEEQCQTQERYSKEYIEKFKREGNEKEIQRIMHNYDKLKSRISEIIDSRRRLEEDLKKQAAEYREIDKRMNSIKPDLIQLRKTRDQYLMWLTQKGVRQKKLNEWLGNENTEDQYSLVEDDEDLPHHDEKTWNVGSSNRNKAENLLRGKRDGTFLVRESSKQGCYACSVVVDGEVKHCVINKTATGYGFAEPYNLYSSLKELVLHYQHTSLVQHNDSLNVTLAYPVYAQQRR
Chain of PI3Kγ (Q9JHG7 whole entry): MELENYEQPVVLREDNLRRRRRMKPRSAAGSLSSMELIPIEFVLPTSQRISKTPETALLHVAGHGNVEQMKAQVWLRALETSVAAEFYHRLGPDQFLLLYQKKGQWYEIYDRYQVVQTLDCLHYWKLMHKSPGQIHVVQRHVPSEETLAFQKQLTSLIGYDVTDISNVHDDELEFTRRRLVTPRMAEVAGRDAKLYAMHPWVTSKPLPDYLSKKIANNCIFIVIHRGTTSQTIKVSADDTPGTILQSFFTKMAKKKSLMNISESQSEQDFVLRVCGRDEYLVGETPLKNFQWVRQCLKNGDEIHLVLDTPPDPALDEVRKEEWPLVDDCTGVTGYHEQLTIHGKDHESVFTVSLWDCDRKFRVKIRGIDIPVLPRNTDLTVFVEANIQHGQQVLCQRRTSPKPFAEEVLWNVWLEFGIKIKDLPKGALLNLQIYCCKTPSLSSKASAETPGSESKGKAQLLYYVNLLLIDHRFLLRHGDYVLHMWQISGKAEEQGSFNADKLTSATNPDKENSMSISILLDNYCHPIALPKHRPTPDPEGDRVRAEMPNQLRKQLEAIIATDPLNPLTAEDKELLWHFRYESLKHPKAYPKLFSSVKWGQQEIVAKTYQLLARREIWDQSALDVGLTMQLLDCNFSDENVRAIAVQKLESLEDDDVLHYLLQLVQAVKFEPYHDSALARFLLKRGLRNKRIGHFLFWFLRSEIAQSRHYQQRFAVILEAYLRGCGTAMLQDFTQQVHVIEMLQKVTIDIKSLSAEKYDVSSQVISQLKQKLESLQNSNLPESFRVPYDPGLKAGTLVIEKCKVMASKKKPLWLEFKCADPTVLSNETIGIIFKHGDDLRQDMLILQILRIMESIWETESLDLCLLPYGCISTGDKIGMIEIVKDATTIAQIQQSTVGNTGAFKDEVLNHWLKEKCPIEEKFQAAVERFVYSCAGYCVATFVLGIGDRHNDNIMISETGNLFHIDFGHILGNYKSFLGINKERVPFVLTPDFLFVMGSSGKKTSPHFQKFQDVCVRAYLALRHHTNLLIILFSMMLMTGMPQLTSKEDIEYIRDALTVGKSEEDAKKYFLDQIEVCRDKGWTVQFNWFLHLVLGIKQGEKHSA
Chain of p110α/p85α (P42336 whole entry): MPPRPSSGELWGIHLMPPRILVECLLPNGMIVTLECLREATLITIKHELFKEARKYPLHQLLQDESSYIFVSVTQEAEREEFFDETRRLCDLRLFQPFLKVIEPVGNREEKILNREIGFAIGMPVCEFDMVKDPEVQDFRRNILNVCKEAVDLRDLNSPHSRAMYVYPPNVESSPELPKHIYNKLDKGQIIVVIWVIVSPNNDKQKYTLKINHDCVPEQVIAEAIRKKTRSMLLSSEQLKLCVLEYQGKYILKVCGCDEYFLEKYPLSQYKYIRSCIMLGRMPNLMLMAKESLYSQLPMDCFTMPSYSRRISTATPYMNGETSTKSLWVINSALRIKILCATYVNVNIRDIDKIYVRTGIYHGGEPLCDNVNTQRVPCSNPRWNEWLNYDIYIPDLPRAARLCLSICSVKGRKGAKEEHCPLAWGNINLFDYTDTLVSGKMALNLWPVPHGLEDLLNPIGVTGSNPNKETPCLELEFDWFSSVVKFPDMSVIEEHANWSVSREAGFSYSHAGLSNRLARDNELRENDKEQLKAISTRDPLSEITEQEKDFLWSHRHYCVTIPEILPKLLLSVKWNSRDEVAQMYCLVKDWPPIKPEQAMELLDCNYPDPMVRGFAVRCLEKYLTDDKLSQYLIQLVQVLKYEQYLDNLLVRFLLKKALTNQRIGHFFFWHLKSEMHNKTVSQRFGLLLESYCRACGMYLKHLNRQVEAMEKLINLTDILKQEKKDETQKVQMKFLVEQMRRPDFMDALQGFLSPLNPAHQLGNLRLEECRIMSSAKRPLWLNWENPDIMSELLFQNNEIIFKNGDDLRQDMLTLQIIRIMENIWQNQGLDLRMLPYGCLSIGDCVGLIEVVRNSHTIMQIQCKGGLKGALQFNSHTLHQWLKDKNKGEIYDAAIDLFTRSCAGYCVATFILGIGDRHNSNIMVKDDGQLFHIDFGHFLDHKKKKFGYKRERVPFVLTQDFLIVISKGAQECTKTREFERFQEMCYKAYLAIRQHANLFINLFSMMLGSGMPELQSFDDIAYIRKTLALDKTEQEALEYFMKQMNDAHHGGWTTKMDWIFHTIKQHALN
Chain of p110α/p85α (P27986 whole entry partner): as the sequence (P27986 whole entry partner) above
Chain of p110γ (P48736 whole entry, canonical isoform): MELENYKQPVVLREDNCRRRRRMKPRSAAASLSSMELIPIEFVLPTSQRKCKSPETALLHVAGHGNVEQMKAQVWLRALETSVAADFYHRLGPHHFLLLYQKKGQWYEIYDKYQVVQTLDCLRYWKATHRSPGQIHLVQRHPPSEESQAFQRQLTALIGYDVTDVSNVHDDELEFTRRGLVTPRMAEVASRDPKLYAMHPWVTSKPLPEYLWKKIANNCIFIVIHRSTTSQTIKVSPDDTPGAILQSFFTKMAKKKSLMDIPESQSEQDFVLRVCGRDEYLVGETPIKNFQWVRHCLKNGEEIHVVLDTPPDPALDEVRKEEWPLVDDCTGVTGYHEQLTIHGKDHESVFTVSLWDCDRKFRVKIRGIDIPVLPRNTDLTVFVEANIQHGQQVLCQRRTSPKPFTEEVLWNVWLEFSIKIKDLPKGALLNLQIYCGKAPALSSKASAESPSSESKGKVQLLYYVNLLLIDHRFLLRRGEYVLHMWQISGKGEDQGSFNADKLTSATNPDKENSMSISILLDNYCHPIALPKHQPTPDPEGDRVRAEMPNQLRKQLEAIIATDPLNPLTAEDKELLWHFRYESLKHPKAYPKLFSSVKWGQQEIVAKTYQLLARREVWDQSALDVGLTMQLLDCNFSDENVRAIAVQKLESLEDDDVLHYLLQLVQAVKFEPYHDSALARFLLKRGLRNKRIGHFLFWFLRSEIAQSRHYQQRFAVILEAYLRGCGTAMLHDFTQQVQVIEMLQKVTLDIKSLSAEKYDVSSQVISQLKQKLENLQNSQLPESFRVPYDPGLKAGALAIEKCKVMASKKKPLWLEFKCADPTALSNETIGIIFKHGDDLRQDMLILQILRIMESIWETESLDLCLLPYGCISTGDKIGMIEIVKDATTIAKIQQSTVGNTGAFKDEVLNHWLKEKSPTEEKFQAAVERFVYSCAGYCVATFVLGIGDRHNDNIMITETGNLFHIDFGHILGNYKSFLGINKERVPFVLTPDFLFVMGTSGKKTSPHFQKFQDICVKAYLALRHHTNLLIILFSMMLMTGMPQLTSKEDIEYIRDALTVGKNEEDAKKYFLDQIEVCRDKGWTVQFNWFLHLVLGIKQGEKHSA

| Structure (SMILES) | IC50 (PI3Kγ) | PI3Kγ IH % @ 1 uM (p110γ) | IC50 (p110γ) | PI3Kβ IH % @ 1 uM (p110β/p85α) | IC50 (p110β/p85α) | PI3Kδ IH % @ 1 uM (p110δ/p85α) | IC50 (p110δ/p85α) | PI3Kα IH % @ 1 uM (p110α/p85α) |
| --- | --- | --- | --- | --- | --- | --- | --- | --- |
| C[C@H]1CN(c2ncnc3[nH]cc(C#N)c23)C1c1nn2ccc(Cl)c2c(=O)n1-c1ccccc1 (stereo partly shown) [Compound 235] | 71 nM | 96.2% | 12 nM | 69.3% | 211 nM | >100% | 4 nM | – |
| CC(=O)c1c[nH]c2ncnc(N3C[C@@H](F)C[C@H]3c3nn4ccc(Cl)c4c(=O)n3-c3ccccc3)c12 [Compound 268] | – | >100% | – | 80.3% | 170 nM | >100% | 3 nM | 38.4% |
| CC(=O)c1cnc(N)nc1N1C[C@H](C)[C@H]1c1nn2ccc(Cl)c2c(=O)n1-c1ccccc1 [Compound 301] | 20 nM | >100% | 13 nM | 79.3% | 223 nM | >100% | 4 nM | – |
| CO/N=C(\C)c1c[nH]c2ncnc(N3CCC[C@H]3c3nn4ccc(Cl)c4c(=O)n3-c3ccccc3)c12 [Compound 308] | – | 96.7% | – | 56.4% | – | 99.7% | – | 9.7% |
| O=c1c2c(Cl)ccn2nc([C@@H]2CCCN2c2ncnc3[nH]cnc23)n1-c1ccccn1 [Compound 311] | – | >100% | 34 nM | 79.4% | 379 nM | >100% | – | 10.1% |
| C[S@+]([O-])c1c[nH]c2ncnc(N3CCC[C@H]3c3nn4ccc(Cl)c4c(=O)n3-c3ccccc3)c12 [Compound 382, 5-chloro-2-((S)-1-(5-((S)-methylsulfinyl)-7H-pyrrolo[2,3-d]pyrimidin-4-yl)pyrrolidin-2-yl)-3-phenylpyrrolo[2,1-f][1,2,4]triazin-4(3H)-one] | – | >100% | 33 nM | 84.4% | 88 nM | 99.0% | 1 nM | 14.1% |
| C[S@@+]([O-])c1c[nH]c2ncnc(N3CCC[C@H]3c3nn4ccc(Cl)c4c(=O)n3-c3ccccc3)c12 [Compound 383, 5-chloro-2-((S)-1-(5-((R)-methylsulfinyl)-7H-pyrrolo[2,3-d]pyrimidin-4-yl)pyrrolidin-2-yl)-3-phenylpyrrolo[2,1-f][1,2,4]triazin-4(3H)-one] | – | >100% | 17 nM | 68.7% | 741 nM | 98.8% | 4 nM | 14.7% |
| C[C@H]1CN(c2nc(N)ncc2C#N)C1c1nn2ccc(Cl)c2c(=O)n1-c1ccccc1 (stereo partly shown) [Compound 431] | 85 nM | 95.9% | 8 nM | 51.3% | – | 96.2% | 7 nM | – |
| Cc1nc(N)nc(N2C[C@H](C)C2c2nn3ccc(F)c3c(=O)n2-c2ccccc2)c1C#N (stereo partly shown) [Compound 436] | 37 nM | 98.7% | 2 nM | 78.5% | 24 nM | >100% | 1 nM | – |
| Cc1nc(N)nc(N2C[C@H](C)[C@H]2c2nn3ccc(Cl)c3c(=O)n2-c2cccc(F)c2)c1C#N [Compound 461] | 18 nM | >100% | 7 nM | 80.5% | 54 nM | >100% | 0.4 nM | – |
| Cc1nc(N)nc(N2C[C@H](C)[C@H]2c2nn3ccc(F)c3c(=O)n2-c2cccc(F)c2)c1C#N [Compound 462] | 90 nM | >100% | 5 nM | 80.5% | 185 nM | >100% | 1 nM | – |
| CC(=O)c1cnc(N)nc1N1C[C@H](C)[C@H]1c1nn2ccc(Cl)c2c(=O)n1-c1cccc(F)c1 [Compound 467] | 39 nM | 94.3% | 5 nM | 77.1% | 374 nM | 89.7% | 1 nM | – |
| CC1(C)CN(c2nc(N)ncc2C#N)C1c1nn2ccc(Cl)c2c(=O)n1-c1ccccc1 (stereo not shown) [Compound 471] | 96 nM | 92.4% | 7 nM | 47.1% | – | >100% | 3 nM | – |
| Cc1nc(N)nc(N2CCC2c2nn3ccc(Cl)c3c(=O)n2-c2ccccn2)c1C#N (stereo not shown) [Compound 475] | 94 nM | 93.3% | 13 nM | 80.3% | 83 nM | 94.9% | 2 nM | – |
| CC(=O)c1cnc(N)nc1N1CC[C@H]1c1nn2ccc(C(F)(F)F)c2c(=O)n1-c1ccccc1 [Compound 486, (S)-2-(1-(5-acetyl-2-aminopyrimidin-4-yl)azetidin-2-yl)-3-phenyl-5-(trifluoromethyl)pyrrolo[2,1-f][1,2,4]triazin-4(3H)-one] | 51 nM | >100% | 13 nM | 41.5% | – | >100% | 22 nM | – |
| Cc1nc(N)nc(N2CC[C@H]2c2nn3ccc(C(F)(F)F)c3c(=O)n2-c2ccccc2)c1C#N [Compound 487] | 46 nM | >100% | 8 nM | 64.7% | – | >100% | 6 nM | – |
